# Measured values taken from patent US12605335B2, “Triptolide lignocerate, liposome thereof and preparation method therefor” (SHANGHAI WEI ER BIOPHARMACEUTICAL TECHNOLOGY CO., LTD., priority 2022, dated 2026).
# Read-outs that look alike come from different tables or passages of the source.
# Legend:
# [1] = test system: ear vein; assay: Vascular irritation evaluation, rabbit ear vein; type: in vivo; details: rabbits, ear vein 0.22 mg/kg (based on TP), daily for three days, histology 48 hours after last administration
# Method: […] (weighing 1.5-2.0 kg) were randomly divided into 6 groups. Each group received intravenous injection via the right ear vein of either saline solution, TP-LA liposomes prepared according to Examples 35, 42, and 53, TP (DMSO) solution, or Minnelide solution, at a dose of 0.22 mg/kg (calculated based on TP), administered at a rate of 1 mL/min. Simultaneously, saline of equal volume was administered via the left ear vein as a control. This procedure was repeated daily for three consecutive days.
# During each day of administration, the animals' behavior and pathological changes at the injection site were observed macroscopically. Euthanasia was performed 48 hours after the last administration. Tissue samples were collected approximately 2.0 cm towards the central end from the injection site on the ear vein, fixed in 10% paraformaldehyd solution, dehydrated using an ethanol gradient, embedded in paraffin, and sectioned into slices stained with hematoxylin and […]. All samples were examined using a BX43-DP21 light microscope (Olympus Corporation, Japan), and pathological changes were assessed.
# [2] = test system: Panc 02 pancreatic cancer model; assay: In vivo antitumor effect, Panc 02 pancreatic cancer model (Example 55); parameters: species or system mouse; details: ICR mice, 4 doses
# Method: Panc 02 pancreatic cancer cells were cultured in DMEM medium at 37° C. with 5% CO2. Cells were passaged every two days during logarithmic growth phase until reaching a concentration of 1×10^7 cells/mL. Under sterile conditions, Panc 02 cells were subcutaneously implanted into the right axilla of ICR mice to establish the pancreatic cancer model. Once the tumor volume grew to 100-300 mm^3, mice were randomly divided into 6 groups of 6 animals each. Groups included blank control group, TP (DMSO) solution group, Minnelide solution group, and TP-LA liposome dose groups. Drugs were administered via tail vein injection at a dose of 0.6 mg/kg (based on TP) every other day for a total of 4 doses. On the third day after the last administration, mice were euthanized. Body weights were recorded, tumors were excised and weighed, and tumor inhibition rates were calculated.
# [formula] 3. Antitumor Effects
# [3] = test system: advanced solid tumors; details: patients with advanced solid tumors, intravenous once a week; cited from earlier work
# [4] = Log P determination by shake-flask; type: physicochemical
# Method: The log P was determined by shake-flask. First, a certain amount of water and n-octanol are added into the funnel, shaken and separated to obtain water-saturated n-octanol solution and n-octanol saturated aqueous solution; quantify and accurately weigh triptolide and its derivatives in a volumetric bottle containing water-saturated n-octanol solution, and dissolve by ultrasound, drop water-saturated n-octanol solution, dilute and volume. Take 0.5 mL of this solution in a 5 mL volumetric flask, dilute with MeOH and volume. The concentration of triptolide and its derivatives was determined by the assay method; take the above solution to the Xilin bottle, add 10 times the amount of n-octanol saturated aqueous solution, and shake in a bath of 37° C. and 75 rpm for one day, so that triptolide and its derivatives reach equilibrium state in aqueous and organic phase. The n-octanol phase was transferred into a centrifuge tube, centrifuged at 3000 rpm for 10 min, precision measuring n-octanol phase in a volumetric flask, diluted 10 times with MeOH solution, and measured the content of triptolide and its derivatives in n-octanol phase. Drug concentration in the aqueous phase=total drug concentration-drug concentration in the n-octanol phase.
# [formula] 3. The Content Determination Method of Triptolide and Its Derivatives in This Embodiment is Determined by High-Performance Liquid Chromatography (2020 Edition, Chinese Pharmacopoeia's Fourth Part Rule 0512), as Follows: • Chromatographic conditions: using chromatographic column: Agilent ZORBAX Eclipse Plus C18 column (4.6 mm×250 mm, 5 μm), mobile phase: 100% MeOH, column temperature: 30° C., flow rate: 1.0 mL/min, sample input: 20 μL, detection wavelength: 218 nm. • Preparation of control solution: accurately weighing triptolide and its derivatives 10 mg, placed in a 10 mL volumetric flask, dissolved with methanol and diluted to the scale line, shake well, as the control reserve solution. • Preparation of standard curve: Reserve solutions of different volumes of control were diluted to produce series solutions with mass concentrations of 5.00, 10.00, 25.00, 50.00, 100.00, 250.00, and 500.00 μg/mL, respectively. 20 μL of each sample was injected into the HPLC system and analyzed according to the “Chromatographic Conditions”. With the concentration C (μg/mL) as the abscissa and the peak area A as the ordinate, the linear regression is obtained. • Assay: accurately absorb 1 mL of each sample solution of triptolide and its derivatives to a 5 mL volumetric flask, dilute with methanol to the scale line, and vortex-mix evenly. 20 μL was injected into the HPLC chromatogram, recorded and calculated by the peak area according to the standard curve method. 4. Experimental Results
# [5] = CN106946975A; cited from earlier work
# [6] = test system: Panc 02 pancreatic cancer model; assay: In vivo antitumor effect, Panc 02 pancreatic cancer model (Example 5); parameters: species or system mouse; details: ICR mice, tail vein 0.6 mg/kg (per TP) every two days, 4 doses
# Method: Mouse pancreatic cancer Panc02 cells were cultured in DMEM medium at 37° C., 5% CO2 and passaged on average every two days. During the log growth phase, the cell concentration was adjusted to 1×10^7/mL, and Panc 02 cells were subcutaneously seeded in the right axilla of ICR mice under sterile conditions to establish a mouse pancreatic cancer model. When the mouse tumor volume was grown to 100-300 mm^3, the mice were randomly divided into 6 groups according to the tumor volume, with 6 mice in each group. The blank, TP (DMSO), TP-SA, TP-EA, TP-BA, and TP-LA were set. The mouse tail vein injection was 0.6 mg/kg (per TP), and the blank group was given 0.2 mL saline every two days for a total of 4 doses. The mice were killed on the third day of drug withdrawal, the mice were weighed, the tumor body was dissected and weighed, and the tumor suppression rate was calculated.
# [formula] 3. Anti-Tumor Effect
# [7] = test system: tumor; details: Huang 2020; cited from earlier work
# [8] = in vivo; triptolide released via in vivo conversion of the liposomes, or triptolide itself; cited from earlier work
# [9] = Pharmacokinetic study in rats; details: male, Sprague-Dawley (SD), rat, in vivo, iv, 0.6 mg/kg
# Method: Rat tail vein dose of equimolar TP 0.6 mg/kg, blood collection time point set at 6 min, 12 min, 18 min, 30 min, 48 min, 1 h, 1.5 h, 2 h, 2.5 h, 3 h, 5 h, 12 h, 24 h, 72 h, 5 SD rats from each group (♂).
# Sample processing and analysis method: take plasma with 4 times the amount of methanol to precipitate protein, centrifugation at 12000 r/min for 10 min; remove the supernatant to remove methanol, extract the remaining residue with 400 μL methyl-t-butyl ether twice, centrifugation at 12000 r/min for 10 min. The organic extraction phase was collected, concentrated and dried, 100 μL of methanol was added for redissolution, and the supernatant was centrifuged into the LC-MS/MS system to calculate the plasma concentration by using DAS 2.0 software.
# [10] = tail vein 0.6 mg/kg (based on TP) every other day
# [11] = shake-flask, n-octanol/water, 37° C., read-out: log P
smiles,measurement,setting,value
CC(C)[C@]12O[C@H]1[C@@H]1O[C@]13[C@]1(O[C@H]1C[C@H]1C4=C(CC[C@@]13C)C(=O)OC4)[C@@H]2OCOP(=O)(O)O [Minnelide],"vascular irritation, pathological changes of ear vein",[1],congestion and some instances of bleeding
same,Body weight change,[2]; [10],1.09%
same,Mean tumor weight,[2]; [10],0.222 ± 0.029 g
same,Tumor inhibition rate,[2]; [10],68.19%
same,tail vein irritation after administration,[2]; tail vein 0.6 mg/kg (based on TP),varying degrees of tail swelling and ulceration
CC(C)[C@]12O[C@H]1[C@@H]1O[C@]13[C@]1(O[C@H]1C[C@H]1C4=C(CC[C@@]13C)C(=O)OC4)[C@@H]2OC(=O)CCC(=O)[O-].[Na+] [PG490-88Na],"grade of most frequently reported adverse reactions (anemia, malaise, nausea, vomiting, diarrhea, constipation)",[3],1-2
same,interindividual variability in pharmacokinetic properties,[3],2- to 3 fold
"CCCCCCCCCCCCCCCCCCCCCC(=O)O[C@@H]1[C@@]2(C(C)C)OC2[C@@H]2O[C@]23[C@]12O[C@H]2CC1C2=C(CC[C@@]13C)C(=O)OC2 (stereo partly shown) [Triptolide behenate, triptolide behenate]",logP at 1 day,[4]; [11],2.78 ± 0.04
"CCCCCCCCCCCCCCCCCCCCCCCC(=O)O[C@@H]1[C@@]2(C(C)C)OC2[C@@H]2O[C@]23[C@]12O[C@H]2CC1C2=C(CC[C@@]13C)C(=O)OC2 (stereo partly shown) [Triptolide lignocerate, triptolide lignocerate]",logP at 1 day,[4]; [11],3.12 ± 0.03
"CCCCCCCCCCCCCCCCCC(=O)O[C@@H]1[C@@]2(C(C)C)OC2[C@@H]2O[C@]23[C@]12O[C@H]2CC1C2=C(CC[C@@]13C)C(=O)OC2 (stereo partly shown) [Triptolide stearate, triptolide stearate]",logP at 1 day,[4]; [11],2.41 ± 0.04
CC(C)[C@]12O[C@H]1[C@@H]1O[C@]13[C@]1(O[C@H]1C[C@H]1C4=C(CC[C@@]13C)C(=O)OC4)[C@@H]2O [Triptolide],liposomal encapsulation rate,[5],less than 50%
same,Mean tumor weight,[6],0.517 ± 0.097 g
same,Tumor Suppression rate,[6],41.12%
same,Tumor inhibition rate,[7],17.67%
same,Mean tumor weight,[2]; [10],0.417 ± 0.097 g
same,Tumor inhibition rate,[2]; [10],40.26%
same,logP at 1 day,[4],0.52 ± 0.01
same,biological half-life of triptolide,[8],15 min
same,AUC(0-inf),[9],0.337 ng·h/mL
same,Cmax,[9],0.698 ng/mL
same,MRT,[9],32.8 min
same,[formula] (half-life),[9],13.2 ± 2.4 min
